Laboratory results taken from paper PMC10222839, “Development of Novel Small-Molecule Activators of Pyruvate Kinase Muscle Isozyme 2, PKM2, to Reduce Photoreceptor Apoptosis” (Pharmaceuticals, 2023).
≈ marks a conversion by molar mass, not a printed value.

Columns and labels:
[1] = molecular target: T1, pyruvate kinase (PK) activity in 661W cells (Mus musculus, UniProt P52480); assay: PK activity in 661W cell lysates after 2 h incubation with activator; type: cell-based; conditions: for AC50: n = 3; for Emax: n = 3, read-out: 661W Cells Max Activation
T1 construct: endogenous in cells; host or cells: 661W photoreceptor-like cells
T1 sequence (P52480 whole entry): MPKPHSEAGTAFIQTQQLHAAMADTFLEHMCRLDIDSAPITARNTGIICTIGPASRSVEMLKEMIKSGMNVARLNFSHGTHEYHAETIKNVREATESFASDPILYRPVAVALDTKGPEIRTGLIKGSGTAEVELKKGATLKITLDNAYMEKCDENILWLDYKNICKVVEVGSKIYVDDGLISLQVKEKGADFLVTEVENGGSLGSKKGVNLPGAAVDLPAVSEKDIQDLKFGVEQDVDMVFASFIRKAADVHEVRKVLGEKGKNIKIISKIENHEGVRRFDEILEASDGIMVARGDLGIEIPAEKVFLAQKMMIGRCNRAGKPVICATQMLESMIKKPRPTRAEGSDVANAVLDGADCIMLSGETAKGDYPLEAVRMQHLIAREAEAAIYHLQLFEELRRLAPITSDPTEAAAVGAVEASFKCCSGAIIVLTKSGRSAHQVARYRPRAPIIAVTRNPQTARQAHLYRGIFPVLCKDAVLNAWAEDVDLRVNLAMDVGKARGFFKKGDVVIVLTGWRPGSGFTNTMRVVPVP
Experimental: The potency and efficacy of each compound, 1 through 5, was assessed with recombinant human PKM2 using an enzyme-coupled assay that uses lactate dehydrogenase and measures the reduction in NADH via absorbance at 340 nm. […] To assess the ability of this pyridazinoindolone series of compounds to cross cellular membranes and increase PK activity, we utilized 661W cells, which are immortalized photoreceptor-like cells that express cone markers.
Cell culture. Next, 661W cells were incubated with either DMSO or different concentrations of small-molecule PKM2 activator for 2 h, lysed and homogenized in RIPA Lysis and Extraction Buffer (Thermo Fisher, Waltham, MA, USA, Cat No. 89900) with protease inhibitors (Complete-Mini, Roche Diagnostics, Indianapolis, IN, USA), and centrifuged at 10,000 rpm for 10 min to remove cellular debris. The supernatant (4–8 μL) was then used to assess the pyruvate kinase activity as described above. The total protein content was determined using the Pierce BCA protein assay kit (Thermo Fisher, Waltham, MA, USA, Cat No. 23225) with the Pierce™ Bovine Serum Albumin Standard Pre-Diluted Set (Thermo Fisher, Waltham, MA, USA, Cat No. 23208) and used to normalize activity as described previously.

[2] = molecular target: T2, human recombinant PKM2 (Homo sapiens, UniProt P14618); assay: Pyruvate kinase enzyme-coupled (LDH/NADH) assay with recombinant PKM2; type: biochemical; conditions: for AC50: recombinant human PKM2, n = 3, best-fit value ± std. error; for Emax: recombinant human PKM2, n = 3, normalized to DMSO-treated enzyme, read-out: Recombinant PKM2 Max Activation
T2 construct: purchased Sigma SAE0021
T2 sequence (P14618 whole entry): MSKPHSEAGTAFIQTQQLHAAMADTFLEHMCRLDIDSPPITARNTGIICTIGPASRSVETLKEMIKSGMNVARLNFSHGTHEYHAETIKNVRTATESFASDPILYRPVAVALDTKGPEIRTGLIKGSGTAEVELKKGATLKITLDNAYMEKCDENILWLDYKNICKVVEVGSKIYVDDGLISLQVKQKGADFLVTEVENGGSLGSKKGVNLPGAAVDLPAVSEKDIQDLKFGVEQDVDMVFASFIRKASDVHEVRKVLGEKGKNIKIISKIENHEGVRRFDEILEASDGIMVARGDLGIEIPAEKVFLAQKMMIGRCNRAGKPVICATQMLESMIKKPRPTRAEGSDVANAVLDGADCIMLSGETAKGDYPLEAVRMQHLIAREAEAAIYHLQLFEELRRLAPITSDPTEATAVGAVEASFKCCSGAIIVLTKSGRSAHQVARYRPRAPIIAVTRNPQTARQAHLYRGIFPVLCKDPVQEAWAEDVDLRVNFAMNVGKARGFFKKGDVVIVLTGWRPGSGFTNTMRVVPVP
Experimental: (§1) Recombinant Enzyme. An enzyme-coupled assay that measures the depletion of NADH via absorbance at 340 nm and uses lactate dehydrogenase (LDH) was employed to determine the activity of pyruvate kinase (PK). To determine the AC50 (concentration of activator necessary to achieve half-maximal activation) of the different small molecules with PKM2, assays were conducted in a 96-well format using 200 μL/well assay volume with 10 nM human recombinant PKM2 (Sigma, St. Louis, MO, USA, Cat No. SAE0021) or PKM1 (Sigma, […], Cat No. SRP0415), differing concentrations of activator, 0.5 mM PEP, 1 mM ADP, 0.2 mM NADH, and 8 U of LDH in a buffer of 50 mM Tris-HCl (pH 7.4), 100 mM KCl, and 5 mM MgCl2 as previously described. A SPECTROstar Omega plate reader (BMG LABTECH Inc., Cary, NC, USA) monitored absorbance at 340 nm. The MARS software suite was utilized to determine initial velocities. Data were normalized to DMSO (dimethyl sulfoxide)-treated enzyme activity, as previously described.

[3] = Aqueous solubility (Analiza, nitrogen detector); type: physicochemical; conditions: aqueous buffer, thermodynamic from solid; PBS, pH 7.4, 24 h, ambient temperature (Table 3)
Experimental: (§2) In brief, each compound was tested at a concentration of 200 μM in PBS, pH 7.4, and room temperature. […] The area of the principal peak in a calibration standard for each compound (200 μM) in organic solvent (60/40 v/v% methanol: water) was compared to the area of the corresponding peak in the PBS sample [42]. Compounds 16–21 underwent solubility testing at Analiza (Cleveland, OH, USA), a contract research organization. Five hundred microliters of PBS, pH 7.4 was added to each amount of compound provided. The samples were vortexed briefly and then placed on a rotary shaker at 200 RPM for 24 h at ambient temperature. Thereafter, the samples were vacuum filtered through a 0.45-micron membrane, and the filtrates were injected into a nitrogen detector for quantification. The nitrogen detector was calibrated using standards, and the filtrates were quantitated based on the calibration curve.

[4] = Aqueous solubility (Eurofins Panlabs, HPLC-UV/Vis); type: physicochemical; conditions: aqueous buffer, kinetic from dmso stock; PBS, pH 7.4, 24 h, room temperature (Table 1)
Experimental: as §2

[5] = molecular target: T3, pyruvate kinase (PK) activity in rat retina (Rattus norvegicus, UniProt P11980); assay: PK activity in rat retina after intravitreal injection; type: in vivo; conditions: intravitreal injection in rats
T3 construct: the retina from each rat eye was dissected from the RPE-choroid, homogenized, and lysed; from tissue; host or cells: retina of adult Brown-Norway rats
T3 sequence (P11980 1-531 isoform P11980-2): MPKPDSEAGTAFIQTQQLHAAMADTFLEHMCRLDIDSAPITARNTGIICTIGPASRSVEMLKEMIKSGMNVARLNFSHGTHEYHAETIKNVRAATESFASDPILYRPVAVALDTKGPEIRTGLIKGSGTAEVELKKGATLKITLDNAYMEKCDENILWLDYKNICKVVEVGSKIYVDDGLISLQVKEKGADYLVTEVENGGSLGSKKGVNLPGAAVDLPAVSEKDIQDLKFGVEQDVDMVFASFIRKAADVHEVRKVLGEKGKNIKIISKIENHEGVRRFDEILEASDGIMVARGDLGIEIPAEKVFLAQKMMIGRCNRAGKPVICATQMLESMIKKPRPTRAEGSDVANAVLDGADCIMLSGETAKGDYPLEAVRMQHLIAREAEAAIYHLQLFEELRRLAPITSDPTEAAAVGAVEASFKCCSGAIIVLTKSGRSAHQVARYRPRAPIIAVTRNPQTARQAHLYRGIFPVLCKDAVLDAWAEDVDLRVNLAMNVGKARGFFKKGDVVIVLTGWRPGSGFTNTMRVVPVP
Experimental: The intravitreal injection of medications has revolutionized how numerous retinal diseases are treated and are ever-increasing in ophthalmic clinical practice. Therefore, to assess the ability of these small molecules to activate PK in vivo in the rat retina, we utilized this well-accepted drug delivery method. Two microliters of each respective compound at 850 μM or DMSO were intravitreally injected into rat eyes. The vitreous volume of the rat eye was assumed to be 15 μL, giving a final intravitreal concentration of approximately 100 μM for each compound after injection. Retinas were harvested four hours after injection, lysed, and assayed for PK activity as previously described. The eyes treated with DMSO served as the control upon which PK activation was based.
(§3) Two microliters of each respective compound at 8.5 μM (final vitreous concentration of 1 μM) or DMSO was intravitreally injected into rat eyes, and the PK activity was assessed four hours later.
Animals. Intravitreal injections of various small-molecule PKM2 activators or vehicle (DMSO) were performed in Brown-Norway adult rats. The rats were anesthetized with ketamine (90 mg/mL) and xylazine (10 mg/mL) and their pupils dilated with topical phenylephrine (2.5%) and tropicamide (1%) as described previously. A sclerotomy was created with a 25-gauge microvitreoretinal blade (Walcott Rx Products, Ocean View, NJ, USA) just posterior to the limbus. A blunt 35-gauge cannula was inserted through this sclerotomy into the vitreous cavity to deliver 2 μL of different concentrations of small-molecule activator or DMSO. This injection volume produces minimal reflux with adequate reproducibility. Fifteen microliters of vitreous volume was assumed in rats to calculate the intravitreal concentrations of the compound after injection. As we have previously described, left eyes were treated with small-molecular activator, while right eyes were treated with DMSO, which served as the control upon which pyruvate kinase activation was based. Four hours later, the retina from each rat eye was dissected from the RPE-choroid, homogenized, and lysed in RIPA Lysis and Extraction Buffer with protease inhibitors. The pyruvate kinase (PK) activity assay, as described above, was performed using 4 to 8 microliters of rat retinal lysate, similar to what we and others have previously described. Analogous to the cell culture assays, the total protein of the lysate was used to normalize pyruvate kinase activity.

[6] = molecular target: T4, recombinant PKM1 (Homo sapiens, UniProt P14618); assay: Pyruvate kinase enzyme-coupled assay with recombinant PKM1; type: biochemical; conditions: increasing concentrations (Figure 6b)
T4 construct: purchased Sigma SRP0415
T4 sequence (P14618 1-531 isoform P14618-2): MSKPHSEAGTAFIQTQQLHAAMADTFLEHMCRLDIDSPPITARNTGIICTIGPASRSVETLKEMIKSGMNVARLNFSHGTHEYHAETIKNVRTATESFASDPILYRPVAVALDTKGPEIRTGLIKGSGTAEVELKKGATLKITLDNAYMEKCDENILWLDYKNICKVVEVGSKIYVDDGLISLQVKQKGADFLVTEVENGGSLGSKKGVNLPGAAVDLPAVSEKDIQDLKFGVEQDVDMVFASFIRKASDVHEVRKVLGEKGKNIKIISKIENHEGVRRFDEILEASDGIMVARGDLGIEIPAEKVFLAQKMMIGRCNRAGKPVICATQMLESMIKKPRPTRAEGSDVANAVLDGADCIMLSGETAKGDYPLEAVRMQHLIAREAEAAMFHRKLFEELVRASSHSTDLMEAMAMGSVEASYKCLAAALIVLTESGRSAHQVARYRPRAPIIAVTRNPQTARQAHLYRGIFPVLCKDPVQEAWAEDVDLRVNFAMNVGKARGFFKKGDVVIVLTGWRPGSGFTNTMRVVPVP
Experimental: as §3, §1

[7] = final vitreous concentration 1 μM, 4 h (Figure 6a)

Row | SMILES | AC50 [1] | Emax [1] | AC50 [2] | Emax [2] | solubility at 24 h [3] | solubility at 24 h [4] | PK activity increase, less than that observed with ML-265 [5, 7] | PK activation in rat retina compared with ML-265 [5, 7] | activation of recombinant PKM1 [6] | AC50 ([5]; increasing concentrations, retina 4 h, read-out: in vivo AC50) | Emax ([5]; rat, increasing concentrations, retina 4 h, normalized to DMSO, read-out: in vivo PK activity (maximum activation))
1 | Cn1c2cc(CNCCO)c(F)cc2c2cnn(Cc3ccccc3F)c(=O)c21 [Compound 20] | 93 ± 29 nM | 288 ± 17% | 62 ± 11 nM | 239 ± 12% | 462 µM (≈ 184 µg/mL) |  |  |  |  |  | 
2 | CSc1ccc2c3cnn(Cc4cccc(N)c4)c(=O)c3n(C)c2c1 [Compound 4] | 66 ± 19 nM | 256 ± 13% | 48 ± 10 nM | 216 ± 12% |  | < 0.01 µM |  |  |  |  | 
3 | Cc1ccc2c3cnn(Cc4ccccc4)c(=O)c3n(C)c2c1 [Compound 1] | 175 ± 64 nM | 219 ± 16% | 23 ± 4 nM | 224 ± 9% |  | < 0.01 µM |  |  |  |  | 
4 | Cc1cccc(Cn2ncc3c4cc(F)c(CNCCO)cc4n(C)c3c2=O)n1 [Compound 17] | 1620 ± 428 nM | 430 ± 33% | 58 ± 5 nM | 213 ± 6% | 1120 µM (≈ 442 µg/mL) |  |  |  |  |  | 
5 | Cc1cccc(Cn2ncc3c4cc(F)c(CN5CCCC5)cc4n(C)c3c2=O)n1 [Compound 18] | 106 ± 27 nM | 257 ± 12% | 64 ± 4 nM | 245 ± 5% | 858 µM (≈ 348 µg/mL) |  | 20–30% |  |  |  | 
6 | Cn1c2cc(CN3CCNCC3)c(F)cc2c2cnn(Cc3ccccc3F)c(=O)c21 [Compound 21] | 72 ± 24 nM | 299 ± 18% | 66 ± 10 nM | 339 ± 16% | 334 µM (≈ 141 µg/mL) |  |  | approximately a third of the retinal PK activation as that achieved with ML-265 |  |  | 
7 | Cc1ccc2c3cnn(Cc4cccc(N)c4)c(=O)c3n(C)c2c1 [Compound 5] | 132 ± 47 nM | 236 ± 16% | 61 ± 12 nM | 249 ± 14% |  | 12.7 µM (≈ 4.04 µg/mL) |  |  |  |  | 
8 | Cc1cccc(Cn2ncc3c4cc(F)c(CN(C)C)cc4n(C)c3c2=O)n1 [Compound 19] | 222 ± 81 nM | 297 ± 22% | 83 ± 9 nM | 266 ± 9% |  |  | 20–30% |  | did not activate |  | 
9 | Cn1c2cc([S+](C)[O-])ccc2c2cnn(Cc3ccccc3)c(=O)c21 (stereo not shown) [Compound 3] | 104 ± 32 nM | 280 ± 17% | 47 ± 10 nM | 279 ± 16% |  | 12.1 µM (≈ 4.25 µg/mL) |  |  |  |  | 
10 | Cn1c2cc([S+](C)[O-])sc2c2cnn(Cc3cccc(N)c3)c(=O)c21 (stereo not shown) [ML-265, reference compound] | 108 ± 32 nM | 370 ± 21% |  | 292 ± 21% |  |  |  |  |  | 866 ± 176 nM | 202 ± 8%
11 | Cc1cccc(Cn2ncc3c4cc(F)c(CN5CCOCC5)cc4n(C)c3c2=O)n1 [Compound 16] | 162 ± 46 nM | 268 ± 15% | 65 ± 8 nM | 224 ± 8% | 397 µM (≈ 167 µg/mL) |  |  |  |  |  | 
